Holding throughout (type): biochemical
One test has as its target JAK2 (Homo sapiens (Human), UniProt O60674). The test is described as follows: LANCE Kinase Assay (JAK2_IC50 selectivity assay). From the text:
In LANCE® Kinase Assay (JAK2_IC50 selectivity assay): JAK2 (Invitrogen, Cat. No PV4288), ATP (Sigma, Cat. No. A7699-1G), DMSO (Sigma, Cat. No. D2650), DTT (Sigma, Cat. No. 43815), LANCE Ultra ULight™-JAK-1 peptide (Perkin Elmer, Cat. No. TRF0121), LANCE Eu-W1024 Anti-phosphotyrosine (PT66) (Perkin Elmer, Cat. No. AD0069), LANCE™ Detection Buffer (Perkin Elmer, Cat. No. CR97-100), Tofacitinib (PharmaBlock Sciences(Nanjing), Inc, Cat. No. PBN2011586-01); Equipments: Envision (Perkin Elmer), Bravo (Agilent); Consumables: 384 well Intermediate plate (Greiner, Cat. No. 781280), 384 well assay plate (Perkin Elmer, Cat. No. 6007299),
The assay involves two steps, the enzymatic step and the detection step with HTRF reagents. Step 1: During the enzymatic step the substrate-biotin is incubated with the kinase of interest. ATP is added to start the reaction. Step 2: The detection reagent catches the phosphorylated substrate and the resulting TR-FRET is proportional to the phosphorylation level.
Compound Preparation: Dissolve the test compounds into 30 mM DMSO solution and put them in nitrogen hood at room temperature for long term storage; Dilute the 30 mM compound in DMSO with 3-fold factor, total 11 concentrations; Aspirate 1 μl compound and then dilute them in 25 folds with kinase buffer. Mix well and balance 30 minutes at room temperature.
Kinase Reaction: Transfer 2.5 μl compounds in kinase buffer (4×) into assay plate by Agilent Bravo. Spin the plate; Transfer 5 μl enzyme mixture into the assay plate by using Eppendorf electronic multi-channel pipette. Spin the plate; Incubate the assay plate for 20 minutes at room temperature (23° C.); Add 2.5 μl kinase buffer with ATP into the assay plate by using Multidrop. Spin and seal the plate; Incubate the assay plate for 90 minutes at room temperature (23° C.).
Stop Reaction: Transfer 10 μl detection reagent (2 nM LANCE Eu-W1024 Anti-phosphotyrosine) into the assay plate by using Eppendorf electronic multi-channel pipette. Spin and seal the plate; Incubate the assay plate at room temperature (23° C.) for 60 minutes.
Detection and Read: The excitation wavelength is 340 nm, the primary emission wavelength is 615 nm and the secondary emission wavelength is 665 nm (for Cryptate and Ulight, respectively). Read the plate with EnVision to get the readout of both wavelengths; Calculate the ratio of 665 nm/615 nm.
IC50 estimates were obtained using the software XLfit (IDBS Inc.).

A further test concerns the target MSK1 (Homo sapiens (Human), UniProt O75582). The experiment in a line: MSK1 kinase selectivity assay. Conditions: 1 μM inhibitor concentration. On the procedure:
MSK1 (5-20 mU diluted in 20 mM MOPS pH 7.5, 1 mM EDTA, 0.01% Brij35, 0.1% b-mercaptoethanol, 1 mg/ml BSA) is assayed against a modified Crosstide peptide […] in a final volume of 25.5 μl containing 8 mM MOPS pH7.0, 0.2 mM EDTA, 30 μM substrate peptide, 10 mM magnesium acetate and 0.02 mM [33P-g-ATP](50-1000 cpm/pmole) and incubated for 30 min at room temperature Assays are stopped by addition of 5 μl of 0.5 M (3%) orthophosphoric acid and then harvested onto P81 Unifilter plates with a wash buffer of 50 mM orthophosphoric acid.

The target in another test is LKB1 (Homo sapiens (Human), UniProt Q15831). The experiment in a line: LKB1 kinase selectivity assay. The following applies: 1 μM inhibitor concentration. As to the method: LKB1 (5-20 mU diluted in 50 mM Tris pH 7.5, 0.1 mM EGTA, 0.1% β-mercaptoethanol, 1 mg/ml BSA) is assayed against […] in a final volume of 25.5 μl containing 50 mM Tris pH 7.5, 0.1 mM EGTA, 0.2 mM […], 10 mM magnesium acetate and 0.02 mM [33P-γ-ATP] (50-1000 cpm/pmole) and incubated for 30 min at room temperature. Assays are stopped by addition of 5 μl of 0.5 M (3%) orthophosphoric acid and then harvested onto P81 Unifilter plates with a wash buffer of 50 mM orthophosphoric acid.

Another test has as its target NEK2a (Homo sapiens (Human), UniProt P51955). The experiment in a line: NEK2a kinase selectivity assay. Conditions: 1 μM inhibitor concentration. As to the method:
5-20 mU of NEK2a (diluted in 50 mM Tris (pH 7.5), 0.1 mM EGTA, 1 mg/ml BSA, 0.1%, b-Mercaptoethanol) is assayed against NEK2a peptide ([…]) in a final volume of 25.5 μl containing 50 mM Tris (pH 7.5), 0.1 mM EGTA, 0.01% Brij, 0.1%, b-Mercaptoethanol, 300 μM NEK2a peptide, 10 mM magnesium acetate and 0.05 mM [33P-g-ATP](500-1000 cpm/pmole) and incubated for 30 mins at room temperature. Assays are stopped by addition of 5 μl of 0.5M (3%) orthophosphoric acid. Assays are harvested onto P81 Unifilter plates using a wash buffer of 50 mM orthophosphoric acid.

The target of a further test is NEK6 (Homo sapiens (Human), UniProt Q9HC98). The test is described as follows: NEK6 kinase selectivity assay. Conditions: 1 μM inhibitor concentration. As to the method: NEK6 (5-20 mU diluted in 50 mM Tris (pH 7.5), 0.1 mM EGTA, 1 mg/ml BSA, 0.1%, b-Mercaptoethanol) is assayed against NEK6 peptide ([…]) in a final volume of 25.5 μl containing 50 mM Tris (pH 7.5), 0.1 mM EGTA, 0.01% Brij, 0.1%, b-Mercaptoethanol, NEK6 peptide (0.3 mM), 10 mM magnesium acetate and 0.05 mM [33P-g-ATP](500-1000 cpm/pmole) and incubated for 30 min at room temperature. Assays are stopped by addition of 5 μl of 0.5 M (3%) orthophosphoric acid and then harvested onto P81 Unifilter plates with a wash buffer of 50 mM orthophosphoric acid.

Another test concerns the target SYK (Homo sapiens (Human), UniProt P43405). The experiment in a line: SYK kinase selectivity assay. Conditions: 1 μM inhibitor concentration. As to the method:
SYK (5-20 mU diluted in 50 mM Tris pH 7.5, 0.1 mM EGTA, 1 mg/ml BSA) is assayed against a substrate peptide (Poly Glut Tyr) in a final volume of 25.5 μl containing 50 mM Tris pH 7.5, 1 mg/ml substrate peptide, 10 mM magnesium acetate and 0.02 mM [33P-g-ATP] (50-1000 cpm/pmole) and incubated for 30 min at room temperature. Assays are stopped by addition of 5 μl of 0.5 M (3%) orthophosphoric acid and then harvested onto P81 Unifilter plates with a wash buffer of 50 mM orthophosphoric acid.

Chain of NEK2a (P51955 whole entry, species assumed): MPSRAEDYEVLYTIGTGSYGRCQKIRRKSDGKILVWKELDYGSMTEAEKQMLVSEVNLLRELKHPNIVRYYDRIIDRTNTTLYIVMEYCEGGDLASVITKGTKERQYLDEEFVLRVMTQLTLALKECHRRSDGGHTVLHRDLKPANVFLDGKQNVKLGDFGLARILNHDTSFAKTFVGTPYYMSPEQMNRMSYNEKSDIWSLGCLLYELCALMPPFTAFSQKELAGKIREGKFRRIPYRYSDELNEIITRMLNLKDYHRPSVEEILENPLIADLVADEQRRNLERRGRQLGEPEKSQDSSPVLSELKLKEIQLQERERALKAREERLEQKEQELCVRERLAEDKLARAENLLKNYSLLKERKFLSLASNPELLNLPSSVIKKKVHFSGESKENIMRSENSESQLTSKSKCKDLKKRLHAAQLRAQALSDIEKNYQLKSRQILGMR
Chain of NEK6 (Q9HC98 whole entry, species assumed): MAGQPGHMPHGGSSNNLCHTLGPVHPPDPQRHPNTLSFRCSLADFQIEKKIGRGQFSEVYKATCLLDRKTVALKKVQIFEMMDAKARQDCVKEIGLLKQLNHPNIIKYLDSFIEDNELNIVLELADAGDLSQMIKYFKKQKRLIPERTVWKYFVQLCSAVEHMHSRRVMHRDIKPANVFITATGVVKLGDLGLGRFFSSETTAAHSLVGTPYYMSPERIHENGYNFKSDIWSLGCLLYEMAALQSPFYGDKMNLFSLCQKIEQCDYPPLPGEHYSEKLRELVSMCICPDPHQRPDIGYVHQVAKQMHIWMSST
Chain of LKB1 (Q15831 whole entry, species assumed): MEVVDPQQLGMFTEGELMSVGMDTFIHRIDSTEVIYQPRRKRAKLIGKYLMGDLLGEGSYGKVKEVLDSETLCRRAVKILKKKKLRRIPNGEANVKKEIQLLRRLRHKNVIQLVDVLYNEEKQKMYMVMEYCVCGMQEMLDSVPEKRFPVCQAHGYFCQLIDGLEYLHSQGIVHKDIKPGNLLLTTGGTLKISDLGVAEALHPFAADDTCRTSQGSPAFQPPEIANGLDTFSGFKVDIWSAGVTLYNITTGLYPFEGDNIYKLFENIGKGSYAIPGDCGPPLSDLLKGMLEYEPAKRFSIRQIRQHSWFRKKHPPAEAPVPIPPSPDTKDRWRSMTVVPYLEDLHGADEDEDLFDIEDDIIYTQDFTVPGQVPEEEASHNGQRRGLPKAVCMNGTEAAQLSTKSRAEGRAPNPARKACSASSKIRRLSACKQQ
Chain of LKB1 (Q7RTN6 whole entry partner, species assumed): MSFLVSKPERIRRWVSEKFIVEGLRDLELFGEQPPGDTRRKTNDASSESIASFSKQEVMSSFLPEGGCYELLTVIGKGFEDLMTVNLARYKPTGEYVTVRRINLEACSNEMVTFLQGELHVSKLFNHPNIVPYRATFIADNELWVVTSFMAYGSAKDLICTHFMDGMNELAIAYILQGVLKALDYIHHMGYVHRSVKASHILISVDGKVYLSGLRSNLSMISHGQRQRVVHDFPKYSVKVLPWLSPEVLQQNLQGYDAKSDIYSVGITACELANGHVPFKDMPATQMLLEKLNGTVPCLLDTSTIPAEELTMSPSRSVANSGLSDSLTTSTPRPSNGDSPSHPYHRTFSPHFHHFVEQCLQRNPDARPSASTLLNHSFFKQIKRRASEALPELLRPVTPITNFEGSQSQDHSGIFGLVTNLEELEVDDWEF
Chain of LKB1 (Q9Y376 whole entry partner, species assumed): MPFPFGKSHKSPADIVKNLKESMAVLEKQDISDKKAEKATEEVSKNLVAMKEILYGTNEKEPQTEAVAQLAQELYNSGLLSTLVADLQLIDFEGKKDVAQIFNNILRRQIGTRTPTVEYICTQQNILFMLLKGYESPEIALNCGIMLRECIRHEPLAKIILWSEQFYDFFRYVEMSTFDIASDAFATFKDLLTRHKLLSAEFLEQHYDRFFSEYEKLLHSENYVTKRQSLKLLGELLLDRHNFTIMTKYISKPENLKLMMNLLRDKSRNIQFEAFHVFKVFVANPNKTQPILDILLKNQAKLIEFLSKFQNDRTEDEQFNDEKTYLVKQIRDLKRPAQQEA
Chain of MSK1 (O75582 whole entry, species assumed): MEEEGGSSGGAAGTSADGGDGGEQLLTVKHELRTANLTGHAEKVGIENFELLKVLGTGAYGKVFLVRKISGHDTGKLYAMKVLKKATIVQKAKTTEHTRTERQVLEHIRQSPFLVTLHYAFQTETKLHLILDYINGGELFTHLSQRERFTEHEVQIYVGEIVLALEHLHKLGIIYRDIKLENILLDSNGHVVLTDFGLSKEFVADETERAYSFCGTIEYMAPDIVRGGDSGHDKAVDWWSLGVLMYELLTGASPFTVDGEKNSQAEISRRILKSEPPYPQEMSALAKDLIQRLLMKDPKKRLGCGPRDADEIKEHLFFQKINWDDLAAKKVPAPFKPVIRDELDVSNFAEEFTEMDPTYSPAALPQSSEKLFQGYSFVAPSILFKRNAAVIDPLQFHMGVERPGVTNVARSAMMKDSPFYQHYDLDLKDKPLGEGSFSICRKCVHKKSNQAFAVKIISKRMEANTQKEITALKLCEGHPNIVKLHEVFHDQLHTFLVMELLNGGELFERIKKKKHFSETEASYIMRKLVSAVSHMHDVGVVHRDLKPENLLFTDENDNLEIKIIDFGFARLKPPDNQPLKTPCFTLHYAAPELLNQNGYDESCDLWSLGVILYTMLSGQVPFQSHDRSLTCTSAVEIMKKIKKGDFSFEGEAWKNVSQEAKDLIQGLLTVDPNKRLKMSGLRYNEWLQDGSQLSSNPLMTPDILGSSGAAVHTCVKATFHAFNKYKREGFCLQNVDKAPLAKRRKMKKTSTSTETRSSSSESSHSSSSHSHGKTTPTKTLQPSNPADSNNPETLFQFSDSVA
Chain of JAK2 (O60674 whole entry): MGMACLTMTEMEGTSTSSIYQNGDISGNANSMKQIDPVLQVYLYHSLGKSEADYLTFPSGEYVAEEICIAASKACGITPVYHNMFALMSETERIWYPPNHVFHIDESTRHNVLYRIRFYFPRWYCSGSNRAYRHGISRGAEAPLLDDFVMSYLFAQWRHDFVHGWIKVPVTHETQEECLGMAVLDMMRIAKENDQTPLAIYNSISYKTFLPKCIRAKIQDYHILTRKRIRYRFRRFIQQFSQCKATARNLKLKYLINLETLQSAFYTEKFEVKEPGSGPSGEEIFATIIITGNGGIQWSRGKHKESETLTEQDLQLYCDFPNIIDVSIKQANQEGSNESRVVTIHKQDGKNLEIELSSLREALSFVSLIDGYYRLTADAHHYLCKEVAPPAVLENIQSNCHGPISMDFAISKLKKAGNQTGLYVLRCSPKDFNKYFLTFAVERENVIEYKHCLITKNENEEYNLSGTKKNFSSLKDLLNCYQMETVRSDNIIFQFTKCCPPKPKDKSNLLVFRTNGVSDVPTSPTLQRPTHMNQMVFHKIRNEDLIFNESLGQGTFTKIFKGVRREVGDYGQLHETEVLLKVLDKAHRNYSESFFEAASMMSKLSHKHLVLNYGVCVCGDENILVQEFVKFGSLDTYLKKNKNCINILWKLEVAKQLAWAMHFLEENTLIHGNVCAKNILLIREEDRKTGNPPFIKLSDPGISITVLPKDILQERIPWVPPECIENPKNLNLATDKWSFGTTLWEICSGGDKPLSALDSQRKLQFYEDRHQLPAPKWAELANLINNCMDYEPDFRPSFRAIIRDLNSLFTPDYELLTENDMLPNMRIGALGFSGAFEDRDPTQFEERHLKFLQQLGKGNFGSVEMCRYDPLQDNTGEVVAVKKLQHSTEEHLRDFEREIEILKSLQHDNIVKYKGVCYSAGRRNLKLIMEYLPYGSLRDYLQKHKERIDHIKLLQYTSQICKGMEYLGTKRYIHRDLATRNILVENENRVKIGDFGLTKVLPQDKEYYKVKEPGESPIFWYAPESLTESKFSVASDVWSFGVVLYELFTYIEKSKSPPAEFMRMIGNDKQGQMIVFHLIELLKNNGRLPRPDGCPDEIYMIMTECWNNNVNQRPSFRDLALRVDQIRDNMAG

Take `c1cc2[nH]nc3c2c(n1)N(C1CCC1)CCC3` [Example 22, 6-cyclobutyl-6,7,8,9-tetrahydro-2H-1,2,5,6-tetraazabenzo[cd]azulene]: the IC50 against JAK2 came out at 8.4 µM. The “percentage inhibition of MSK1” value on MSK1 is given as 2 percentage. On LKB1, the “percentage inhibition of LKB1” value is on record as 20 percentage. On NEK2a, the “percentage inhibition of NEK2a” value amounted to 13 percentage. Besides, on NEK6, the “percentage inhibition of NEK6” value is reported as 3 percentage. Moreover, the “percentage inhibition of SYK” value at SYK was found to be 0 percentage.

On to `c1cc2[nH]nc3c2c(n1)N(C1CCCC1)CCC3` [Example 23, 6-cyclopentyl-6,7,8,9-tetrahydro-2H-1,2,5,6-tetraazabenzo[cd]azulene], for which, at MSK1, the “percentage inhibition of MSK1” value is 2 percentage. Moreover, the “percentage inhibition of LKB1” value at LKB1 came out at 16 percentage. The “percentage inhibition of NEK2a” value at NEK2a turned out to be 8 percentage. In addition, the “percentage inhibition of NEK6” value on NEK6 stood at 1 percentage. The “percentage inhibition of SYK” value on SYK turned out to be 0 percentage.

Regarding `c1cc2[nH]nc3c2c(n1)N(C1CCOCC1)CCC3` [Example 29, 6-(tetrahydro-2H-pyran-4-yl)-6,7,8,9-tetrahydro-2H-1,2,5,6-tetraazabenzo[cd]azulene], the “percentage inhibition of MSK1” value on MSK1 stood at 7 percentage. Further, at LKB1, the “percentage inhibition of LKB1” value is 6 percentage. Moreover, at NEK2a, the “percentage inhibition of NEK2a” value was 0 percentage. The “percentage inhibition of NEK6” value on NEK6 was 1 percentage. For the same molecule, at SYK, the “percentage inhibition of SYK” value was 0 percentage.

`CN1CCC(N2Cc3ccccc3-c3n[nH]c4ccnc2c34)CC1` [Example 55]: the “percentage inhibition of MSK1” value on MSK1 is 34 percentage. For the same molecule, the “percentage inhibition of LKB1” value on LKB1 is 0 percentage. Moreover, the “percentage inhibition of NEK2a” value at NEK2a turned out to be 14 percentage. Further, on NEK6, the “percentage inhibition of NEK6” value was 0 percentage. Besides, the “percentage inhibition of SYK” value on SYK is 0 percentage.

`CC(C)n1ncc2c1CN(C1CCN(C)CC1)c1nccc3[nH]nc-2c13` [Example 68] showed an IC50 on JAK2 of 6.3 µM. The “percentage inhibition of MSK1” value at MSK1 is 30 percentage. Further, the “percentage inhibition of LKB1” value at LKB1 is 0 percentage. Further, at NEK2a, the “percentage inhibition of NEK2a” value is reported as 0 percentage. Further, the “percentage inhibition of NEK6” value on NEK6 was 0 percentage. The “percentage inhibition of SYK” value at SYK stood at 1 percentage.

Values taken from patent publication US10918645B2 (LIFEARC, priority 2016, dated 2021).
